Experimental data reported in patent EP0049683A2, “Imidazo-rifamycines, process for their preparation, pharmaceutical preparations containing them and their use” (CIBA-GEIGY AG, priority 1980, dated 1982).
Converted amounts (≈) assume the structure as drawn.

Experiments:
Assay in all cases: Agar dilution MIC in DST agar (Ericsson and Sherris)
Format in all cases: cell-based
[1] = test system: Pseudomonas aeruginosa K 799/61; settings: for MIC: Pseudomonas aeruginosa, K799/61, read-out: MIC Pseu. 799; for MIC Pseu. 799: in vitro, agar dilution, DST agar
Procedure, shortened: (§1)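 Read-out: minimal growth-inhibiting concentration (MIC), µg/ml. Compounds tested in vitro by agar dilution; endpoint is lowest level that still prevents visible growth.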

[2] = test system: Staphylococcus aureus 10B; settings: in vitro; for MIC: Staphylococcus aureus, 10B, read-out: MIC Staph. 10B
Procedure, shortened: as §1

[3] = test system: Staphylococcus aureus 2999; settings: for MIC: Staphylococcus aureus, 2999, in vitro, read-out: MIC Staph. 2999; for MIC Staph. 2999: in vitro
Procedure, shortened: as §1

Proteus morganii 2359 = settings: for MIC: Morganella morganii, 2359, in vitro, read-out: MIC Prot. 2359; for MIC Prot. 2359: in vitro
Procedure, shortened: as §1

Proteus morganii 1518 = settings: for MIC: Morganella morganii, 1518, in vitro, read-out: MIC Prot. 1518; for MIC Prot. 1518: in vitro
Procedure, shortened: as §1

Escherichia coli 2018 = settings: for MIC: Escherichia coli, 2018, in vitro, read-out: MIC Esch. 2018; for MIC Esch. 2018: in vitro
Procedure, shortened: as §1

Escherichia coli 205 = settings: for MIC: Escherichia coli, 205, in vitro, read-out: MIC Esch. 205; for MIC Esch. 205: in vitro
Procedure, shortened: as §1

[4] = test system: Salmonella Typhimurium 277; settings: in vitro; for MIC: Salmonella enterica, TYPHIMURIUM, read-out: MIC Salm. 277
Procedure, shortened: as §1

Structure (SMILES) | MIC [1] | MIC [2] | MIC [3] | MIC (Proteus morganii 2359) | MIC (Proteus morganii 1518) | MIC (Escherichia coli 2018) | MIC (Escherichia coli 205) | MIC [4] | MIC Pseu. 799 [1] | MIC Staph. 10B [2] | MIC Staph. 2999 [3] | MIC Prot. 2359 (Proteus morganii 2359) | MIC Prot. 1518 (Proteus morganii 1518) | MIC Esch. 2018 (Escherichia coli 2018) | MIC Esch. 205 (Escherichia coli 205) | MIC Salm. 277 [4]
CO[C@H]1/C=C/O[C@@]2(C)Oc3c(C)c(O)c4c(O)c(c5[nH]c(N6CCC(N7CCCCC7)CC6)nc5c4c3C2=O)NC(=O)/C(C)=C\C=C\[C@H](C)[C@H](O)[C@@H](C)[C@@H](O)[C@@H](C)[C@H](OC(C)=O)[C@@H]1C [Verbindung 24, 4-(4-Piperidino-1-piperidyl-)-imidazolo[4,5-c]rifamycin SV] | 16 µg/mL (≈ 18 µM) | 0.05 µg/mL (≈ 0.0563 µM) | 0.01 µg/mL (≈ 0.0113 µM) | 4 µg/mL (≈ 4.5 µM) | 8 µg/mL (≈ 9.01 µM) | 4 µg/mL (≈ 4.5 µM) | 8 µg/mL (≈ 9.01 µM) | 16 µg/mL (≈ 18 µM) | – | – | – | – | – | – | – | –
CO[C@H]1/C=C/O[C@@]2(C)Oc3c(C)c(O)c4c(O)c(c5nc(N6CCCCCC6)[nH]c5c4c3C2=O)NC(=O)/C(C)=C\C=C\[C@H](C)[C@H](O)[C@@H](C)[C@@H](O)[C@@H](C)[C@H](OC(C)=O)[C@@H]1C [Verbindung 27, 4-(1-Perhydroazepinyl)-imidazolo[4,5-c]rifamycin SV] | – | – | – | – | – | – | – | – | 8 µg/mL (≈ 9.77 µM) | 0.001 µg/mL (≈ 0.00122 µM) | 0.001 µg/mL (≈ 0.00122 µM) | 8 µg/mL (≈ 9.77 µM) | 2 µg/mL (≈ 2.44 µM) | 8 µg/mL (≈ 9.77 µM) | 8 µg/mL (≈ 9.77 µM) | 32 µg/mL (≈ 39.1 µM)
CCN1CCN(c2nc3c4c(O)c5c(O)c(C)c6c(c5c3[nH]2)C(=O)[C@@](C)(O/C=C/[C@H](OC)[C@@H](C)[C@@H](OC(C)=O)[C@H](C)[C@H](O)[C@H](C)[C@@H](O)[C@@H](C)/C=C/C=C(/C)C(=O)N4)O6)CC1 [Verbindung 31, 4-(4-Ethylpiperazinyl)-imidazolo[4,5-c]rifamycin SV] | – | – | – | – | – | – | – | – | 8 µg/mL (≈ 9.59 µM) | 0.002 µg/mL (≈ 0.0024 µM) | 0.001 µg/mL (≈ 0.0012 µM) | 8 µg/mL (≈ 9.59 µM) | 8 µg/mL (≈ 9.59 µM) | 8 µg/mL (≈ 9.59 µM) | 8 µg/mL (≈ 9.59 µM) | 32 µg/mL (≈ 38.4 µM)
CCC(C)CN1CCN(c2nc3c([nH]2)c2c(O)c4c(O)c(C)c5c(c43)C(=O)[C@@](C)(O/C=C/[C@H](OC)[C@@H](C)[C@@H](OC(C)=O)[C@H](C)[C@H](O)[C@H](C)[C@@H](O)[C@@H](C)/C=C/C=C(/C)C(=O)N2)O5)CC1 (some centres unmarked) [Verbindung 38, 4-[4-(2-Methyl-butyl)piperazinyl]-imidazolo[4,5-c]rifamycin SV] | 16 µg/mL (≈ 18.3 µM) | 0.005 µg/mL (≈ 0.00571 µM) | 0.005 µg/mL (≈ 0.00571 µM) | 2 µg/mL (≈ 2.28 µM) | 4 µg/mL (≈ 4.57 µM) | 2 µg/mL (≈ 2.28 µM) | 4 µg/mL (≈ 4.57 µM) | 16 µg/mL (≈ 18.3 µM) | – | – | – | – | – | – | – | –
CO[C@H]1/C=C/O[C@@]2(C)Oc3c(C)c(O)c4c(O)c(c5[nH]c(N6CCN(CCC(C)C)CC6)nc5c4c3C2=O)NC(=O)/C(C)=C\C=C\[C@H](C)[C@H](O)[C@@H](C)[C@@H](O)[C@@H](C)[C@H](OC(C)=O)[C@@H]1C [Verbindung 40, 4-[4-(3-Methylbutyl)piperazinyl]-imidazolo[4,5-c]rifamycin SV] | 16 µg/mL (≈ 18.3 µM) | 0.005 µg/mL (≈ 0.00571 µM) | 0.005 µg/mL (≈ 0.00571 µM) | 8 µg/mL (≈ 9.13 µM) | 8 µg/mL (≈ 9.13 µM) | 8 µg/mL (≈ 9.13 µM) | 8 µg/mL (≈ 9.13 µM) | 32 µg/mL (≈ 36.5 µM) | – | – | – | – | – | – | – | –
C=CCCN1CCN(c2nc3c([nH]2)c2c(O)c4c(O)c(C)c5c(c43)C(=O)[C@@](C)(O/C=C/[C@H](OC)[C@@H](C)[C@@H](OC(C)=O)[C@H](C)[C@H](O)[C@H](C)[C@@H](O)[C@@H](C)/C=C/C=C(/C)C(=O)N2)O5)CC1 [Verbindung 45, 4-[4-(3-Butenyl)-piperazinyl]-imidazolo[4,5-c]rifamycin SV] | 32 µg/mL (≈ 37.2 µM) | 0.01 µg/mL (≈ 0.0116 µM) | 0.005 µg/mL (≈ 0.00581 µM) | 8 µg/mL (≈ 9.3 µM) | 8 µg/mL (≈ 9.3 µM) | 1 µg/mL (≈ 1.16 µM) | 8 µg/mL (≈ 9.3 µM) | 32 µg/mL (≈ 37.2 µM) | – | – | – | – | – | – | – | –
CC=C(CC)CN1CCN(c2nc3c([nH]2)c2c(O)c4c(O)c(C)c5c(c43)C(=O)[C@@](C)(O/C=C/[C@H](OC)[C@@H](C)[C@@H](OC(C)=O)[C@H](C)[C@H](O)[C@H](C)[C@@H](O)[C@@H](C)/C=C/C=C(/C)C(=O)N2)O5)CC1 [Verbindung 47, 4-[4-(2-Ethyl-2-butenyl)-piperazinyl]-imidazolo[4,5-c]-rifamycin SV] | 32 µg/mL (≈ 36 µM) | 0.005 µg/mL (≈ 0.00563 µM) | 0.005 µg/mL (≈ 0.00563 µM) | 4 µg/mL (≈ 4.5 µM) | 4 µg/mL (≈ 4.5 µM) | 4 µg/mL (≈ 4.5 µM) | 8 µg/mL (≈ 9.01 µM) | 16 µg/mL (≈ 18 µM) | – | – | – | – | – | – | – | –
CO[C@H]1/C=C/O[C@@]2(C)Oc3c(C)c(O)c4c(O)c(c5[nH]c(N6CCN(CC(C)=C(C)C)CC6)nc5c4c3C2=O)NC(=O)/C(C)=C\C=C\[C@H](C)[C@H](O)[C@@H](C)[C@@H](O)[C@@H](C)[C@H](OC(C)=O)[C@@H]1C [Verbindung 48] | 32 µg/mL (≈ 36 µM) | 0.001 µg/mL (≈ 0.00113 µM) | 0.001 µg/mL (≈ 0.00113 µM) | 8 µg/mL (≈ 9.01 µM) | 8 µg/mL (≈ 9.01 µM) | 8 µg/mL (≈ 9.01 µM) | 32 µg/mL (≈ 36 µM) | 32 µg/mL (≈ 36 µM) | – | – | – | – | – | – | – | –
C#CCN1CCN(c2nc3c([nH]2)c2c(O)c4c(O)c(C)c5c(c43)C(=O)[C@@](C)(O/C=C/[C@H](OC)[C@@H](C)[C@@H](OC(C)=O)[C@H](C)[C@H](O)[C@H](C)[C@@H](O)[C@@H](C)/C=C/C=C(/C)C(=O)N2)O5)CC1 [Verbindung 49, 4-(4-Propargylpiperazinyl)-imidazolo[4,5-c]rifamycin SV] | 8 µg/mL (≈ 9.48 µM) | 0.001 µg/mL (≈ 0.00118 µM) | 0.001 µg/mL (≈ 0.00118 µM) | 8 µg/mL (≈ 9.48 µM) | 8 µg/mL (≈ 9.48 µM) | 32 µg/mL (≈ 37.9 µM) | 8 µg/mL (≈ 9.48 µM) | 32 µg/mL (≈ 37.9 µM) | – | – | – | – | – | – | – | –
CO[C@H]1/C=C/O[C@@]2(C)Oc3c(C)c(O)c4c(O)c(c5nc(N6CCN(C7CCCC7)CC6)[nH]c5c4c3C2=O)NC(=O)/C(C)=C\C=C\[C@H](C)[C@H](O)[C@@H](C)[C@@H](O)[C@@H](C)[C@H](OC(C)=O)[C@@H]1C [Verbindung 50, 4-(4-Cyclopentylpiperazinyl)-imidazolo[4,5-c]rifamycin SV] | 8 µg/mL (≈ 9.15 µM) | 0.01 µg/mL (≈ 0.0114 µM) | 0.01 µg/mL (≈ 0.0114 µM) | 8 µg/mL (≈ 9.15 µM) | 8 µg/mL (≈ 9.15 µM) | 8 µg/mL (≈ 9.15 µM) | 8 µg/mL (≈ 9.15 µM) | 32 µg/mL (≈ 36.6 µM) | – | – | – | – | – | – | – | –
CO[C@H]1/C=C/O[C@@]2(C)Oc3c(C)c(O)c4c(O)c(c5nc(N6CCN(c7cccc(C(F)(F)F)c7)CC6)[nH]c5c4c3C2=O)NC(=O)/C(C)=C\C=C\[C@H](C)[C@H](O)[C@@H](C)[C@@H](O)[C@@H](C)[C@H](OC(C)=O)[C@@H]1C [Verbindung 53, 4-[4-(3-Trifluormethylphenyl)-piperazinyl]-imidazolo-[4,5-c]rifamycin SV] | 32 µg/mL (≈ 33.7 µM) | 0.01 µg/mL (≈ 0.0105 µM) | 0.01 µg/mL (≈ 0.0105 µM) | 8 µg/mL (≈ 8.42 µM) | 2 µg/mL (≈ 2.11 µM) | 8 µg/mL (≈ 8.42 µM) | 8 µg/mL (≈ 8.42 µM) | 32 µg/mL (≈ 33.7 µM) | – | – | – | – | – | – | – | –
CO[C@H]1/C=C/O[C@@]2(C)Oc3c(C)c(O)c4c(O)c(c5nc(N6CCN(CC7CC7)CC6)[nH]c5c4c3C2=O)NC(=O)/C(C)=C\C=C\[C@H](C)[C@H](O)[C@@H](C)[C@@H](O)[C@@H](C)[C@H](OC(C)=O)[C@@H]1C [Verbindung 54, 4-(4-Cyclopropylmethylpiperazinyl)-imidazolo[4,5-c]rifamycin SV] | 16 µg/mL (≈ 18.6 µM) | 0.005 µg/mL (≈ 0.00581 µM) | 0.005 µg/mL (≈ 0.00581 µM) | 8 µg/mL (≈ 9.3 µM) | 8 µg/mL (≈ 9.3 µM) | 8 µg/mL (≈ 9.3 µM) | 8 µg/mL (≈ 9.3 µM) | 32 µg/mL (≈ 37.2 µM) | – | – | – | – | – | – | – | –
CO[C@H]1/C=C/O[C@@]2(C)Oc3c(C)c(O)c4c(O)c(c5nc(N6CCN(CC7CCCC7)CC6)[nH]c5c4c3C2=O)NC(=O)/C(C)=C\C=C\[C@H](C)[C@H](O)[C@@H](C)[C@@H](O)[C@@H](C)[C@H](OC(C)=O)[C@@H]1C [Verbindung 55, 4-(4-Cyclopentylmethylpiperazinyl)-imidazolo[4,5-c]-rifamycin SV] | 32 µg/mL (≈ 36 µM) | 0.01 µg/mL (≈ 0.0113 µM) | 0.001 µg/mL (≈ 0.00113 µM) | 2 µg/mL (≈ 2.25 µM) | 2 µg/mL (≈ 2.25 µM) | 1 µg/mL (≈ 1.13 µM) | 8 µg/mL (≈ 9.01 µM) | 32 µg/mL (≈ 36 µM) | – | – | – | – | – | – | – | –
